In series [1] the test system is HBV. Nature of the series: Anti-HBV activity in HepG2.2.15 cells (HBV DNA in culture medium by qPCR). It counts as cell-based. The method, then:
Example 2: Anti-Viral Assay in HepG2.2.15 Cells
(§1) HepG2.2.15 (the HepG2.2.15 cell line can be produced by transfection of the HepG2 cell line as described in Sells, Chen, and Acs 1987 (Proc. Natl. Acad. Sci. USA 84: 1005-1009), and the HepG2 cell line is available from ATCC® under number HIB-8065™)
(§2) HepG2.2.15 cells were plated into 96-well plate in 2% FBS culture medium at the density of 40,000 cells/well and 5,000 cells/well for HBV inhibitory activity and cytotoxicity determination, respectively. After incubation at 37° C., 5% CO2 overnight, cells were treated with medium containing compounds for 6 days with medium and compounds refreshed after 3 days of treatment. Each compound was tested in a 1:3 serial dilutions at 8 different concentrations in triplicate. The highest concentration of the compounds was 10 uM or 1 uM for anti-HBV activity assay and 100 uM for cytotoxicity determination.
The change of HBV DNA level induced by the compounds was assessed by quantitative real-time polymerase chain reaction (qPCR). Briefly, the HBV DNA in the culture medium was extracted using QIAamp 96 DNA Blood Kit according to the manual and then quantified by real-time PCR assay using the primers and probe in the table 2 below.
(§3) 2) DATA Analysis EC50 and CC50 values are calculated by the GRAPTIPAD PRISM software.

The nature of series [2]: Cytotoxicity determination in HepG2.2.15 cells (CCK-8 cell viability). The note with it: human, 6 days treatment, CCK-8 assay, highest concentration 100 uM. The series is classed as cell-based. Here is the method:
as §1, §2
Cell viability was determined by CCK-8 assay. After 6 days of compounds treatment, 20 μl CCK-8 reagents were added to each well of cytotoxicity assay plates. Cell plates were incubated at 37° C., 5% CO2 for 2.5 h. The absorbance at 450 nm wavelength and the absorbance at 630 nm wavelength as reference was measured.
as §3

Where [3] appears, read: Hepatitis B virus, HepG2.2.15, 144 h, HepG2.2.15 cells, 6 days treatment, HBV DNA in culture medium quantified by real-time PCR, read-out: EC50.

Molecules are shown by their SMILES. Read-outs that look alike come from different tables or passages of the source. Bounds are passed on as bounds.

A word on the EC50: it is the midpoint of the concentration-response curve. Broadly, the CC50 is the concentration giving 50% cytotoxicity. High values mean lower toxicity to the cells, low ones greater toxicity to the cells. As for `COC(=O)C1=C(CN2CC(F)(F)[C@H]3[C@@H]2CCN3C[C@H](C)C(=O)O)NC(c2nccs2)=N[C@H]1c1ccc(F)c(F)c1Cl` (single isomer, unassigned) [Compound 134B, 3-((cis)-4-((6-(2-chloro-3,4-difluorophenyl)-5-(methoxycarbonyl)-2-(thiazol-2-yl)-3,6-dihydropyrimidin-4-yl)methyl)-6,6-difluorohexahydropyrrolo[3,2-b]pyrrol-1(2H)-yl)-2-methylpropanoic acid], in series [1] (setting [3]), the EC50 came to 4.3 nM. This compound also had a CC50 at 6 days in series [2] of 24200 nM.
Taken in the same sequence, the figures for `CCOC(=O)C1=C(CN2CC(F)(F)[C@H]3[C@@H]2CCN3[C@@H](C)C(=O)O)NC(c2nccs2)=N[C@H]1c1cccc(F)c1C` (single isomer, unassigned) [Compound 26F] were 14.8 nM and 41700 nM.
As to `CCOC(=O)C1=C(CN2CC(F)(F)[C@H]3[C@@H]2CCN3CC[C@H]2C[C@@H]2C(=O)O)NC(c2nccs2)=N[C@H]1c1cccc(F)c1C` (relative stereo) [Compound 110, (trans)-2-(2-((cis)-4-(((S)-5-(ethoxycarbonyl)-6-(3-fluoro-2-methylphenyl)-2-(thiazol-2-yl)-3,6-dihydropyrimidin-4-yl)methyl)-6,6-difluorohexahydropyrrolo[3,2-b]pyrrol-1(2H)-yl)ethyl)cyclopropane-1-carboxylic acid], the EC50 in series [1] (setting [3]) was 0.6 nM. For the same compound, half-maximal cytotoxicity in series [2] (CC50 at 6 days) was put at 23500 nM.
For `Cc1c(F)cccc1[C@@H]1N=C(c2nccs2)NC(CN2CC(F)(F)[C@H]3[C@@H]2CCN3CCC(C)(C)C(=O)O)=C1C(=O)OC(C)C` (single isomer, unassigned) [Compound 152] the same measures were 61.8 nM and 12700 nM.
For `CCOC(=O)C1=C(CN2CC[C@H]3C(=O)N(CC(C)(C)C(=O)O)C[C@H]32)NC(c2nccs2)=N[C@H]1c1cccc(F)c1C` (single isomer, unassigned) [Compound 25A] the same measures were 32.4 nM and 74500 nM.
For `COC(=O)C1=C(CN2CC(F)(F)[C@@H]3[C@H]2CON3CCC(C)(C)C(=O)O)NC(c2nccs2)=N[C@H]1c1cccc(F)c1F` (single isomer, unassigned) [Compound 167, 4-((cis)-4-((6-(2,3-difluorophenyl)-5-(methoxycarbonyl)-2-(thiazol-2-yl)-3,6-dihydropyrimidin-4-yl)methyl)-6,6-difluorohexahydro-1H-pyrrolo[3,2-c]isoxazol-1-yl)-2,2-dimethylbutanoic acid] the same measures were 16.3 nM and above 100000 nM.
In the case of `CCOC(=O)C1=C(CN2CC(F)C3C(=O)N(CC(C)(C)C(=O)O)CC32)NC(c2nccs2)=N[C@H]1c1cccc(F)c1C` (stereo partly drawn) [Compound 186, 3-((cis)-1-(((S)-5-(ethoxycarbonyl)-6-(3-fluoro-2-methylphenyl)-2-(thiazol-2-yl)-3,6-dihydropyrimidin-4-yl)methyl)-3-fluoro-4-oxohexahydropyrrolo[3,4-b]pyrrol-5(1H)-yl)-2,2-dimethylpropanoic acid], the EC50 in series [1] (setting [3]) worked out at 8.9 nM. This compound returned a CC50 at 6 days in series [2] of 66900 nM.
With `CCOC(=O)C1=C(CN2CC(F)(F)[C@@H]3CNC[C@@H]32)NC(c2nccs2)=N[C@H]1c1cccc(F)c1C` (single isomer, unassigned) [Compound 179], the EC50 in series [1] (setting [3]) stood at 50 nM. In series [2], this compound came in with a CC50 at 6 days above 3100 nM.
For `CCOC(=O)C1=C(CN2CC(F)(F)[C@@H]3[C@H]2CN(CC(F)(F)F)N3CCC(C)(C)C(=O)O)NC(c2nccs2)=N[C@H]1c1cccc(F)c1C` (single isomer, unassigned) [Compound 92] the same measures were 61 nM and 5000 nM.
Taken in the same sequence, the figures for `CCOC(=O)C1=C(CN2CC(F)(F)[C@H]3[C@@H]2CC(=O)N3[C@H]2CC[C@H](C(=O)O)CC2)NC(c2nccs2)=N[C@H]1c1cccc(F)c1C` (single isomer, unassigned) [Compound 158B] were 52.6 nM and 16600 nM.
Taken in the same sequence, the figures for `CCOC(=O)C1=C(CN2CC(F)(F)[C@@H]3C(=O)N(CC(C)(C)c4nn[nH]n4)C[C@@H]32)NC(c2nccs2)=N[C@H]1c1cccc(F)c1C` (single isomer, unassigned) [Compound 200] were 34.7 nM and 91300 nM.
With `COC(=O)C1=C(CN2CC(F)(F)[C@H]3[C@@H]2CN(C(C)=O)N3CCC(C)(C)C(=O)O)NC(c2nccs2)=N[C@H]1c1ccc(F)c(F)c1C` (single isomer, unassigned) [Compound 82B, 4-((cis)-2-acetyl-4-((6-(3,4-difluoro-2-methylphenyl)-5-(methoxycarbonyl)-2-(thiazol-2-yl)-3,6-dihydropyrimidin-4-yl)methyl)-6,6-difluorohexahydropyrrolo[3,2-c]pyrazol-1(2H)-yl)-2,2-dimethylbutanoic acid], the EC50 in series [1] (setting [3]) is 37 nM. In series [2], this compound had a CC50 at 6 days of 46900 nM.
Taken in the same sequence, the figures for `CCOC(=O)C1=C(CN2CC(F)(F)[C@H]3[C@@H]2CCN3CCC(C)(C)C(=O)O)NC(c2nccs2)=N[C@H]1c1ccc(F)c(F)c1Cl` (single isomer, unassigned) [Compound 138, 4-((cis)-4-((6-(2-chloro-3,4-difluorophenyl)-5-(ethoxycarbonyl)-2-(thiazol-2-yl)-3,6-dihydropyrimidin-4-yl)methyl)-6,6-difluorohexahydropyrrolo[3,2-b]pyrrol-1(2H)-yl)-2,2-dimethylbutanoic acid] were 0.5 nM and 14500 nM.
For the compound `[H][C@]1(N2CC[C@H]3[C@@H]2C(F)(F)CN3CC2=C(C(=O)OC)[C@H](c3cccc(F)c3F)N=C(c3nccs3)N2)C[C@]2(C[C@@H](C(=O)O)C2)C1` (single isomer, unassigned) [Compound 120B], the concentration giving a half-maximal response (EC50) in series [1] (HepG2.2.15 cells, 6 days treatment, HBV DNA in culture medium quantified by real-time PCR, read-out: EC50) was 13 nM. Also, half-maximal cytotoxicity in series [2] (CC50 at 6 days) was put at 19900 nM.
The compound `CCOC(=O)C1=C(CN2CC(F)(F)[C@@H]3[C@H]2CN(C(=O)C(F)(F)F)N3CCC(C)(C)C(=O)O)NC(c2nccs2)=N[C@H]1c1cccc(F)c1C` (stereo in doubt) [Compound 71, 4-((cis)-4-(((S)-5-(ethoxycarbonyl)-6-(3-fluoro-2-methylphenyl)-2-(thiazol-2-yl)-3,6-dihydropyrimidin-4-yl)methyl)-6,6-difluoro-2-(2,2,2-trifluoroacetyl)hexahydropyrrolo[3,2-c]pyrazol-1(2H)-yl)-2,2-dimethylbutanoic acid] gave an EC50 in series [1] (Hepatitis B virus, HepG2.2.15, 144 h) of 29 nM. The CC50 at 6 days in series [2] stood at 20900 nM.
On to `COC(=O)C1=C(CN2CC(F)(F)[C@@H]3[C@H]2CON3CCC(C)(C)C(=O)O)NC(c2nccs2)=N[C@H]1c1cccc(F)c1Cl` (single isomer, unassigned) [Compound 170, (cis)-4-(4-((6-(2-chloro-3-fluorophenyl)-5-(methoxycarbonyl)-2-(thiazol-2-yl)-3,6-dihydropyrimidin-4-yl)methyl)-6,6-difluorohexahydro-1H-pyrrolo[3,2-c]isoxazol-1-yl)-2,2-dimethylbutanoic acid], for which, in series [1] (setting [3]), the EC50 came out at 8 nM. Moreover, in series [2], the CC50 at 6 days is above 25000 nM.
Taken in the same sequence, the figures for `CCOC(=O)C1=C(CN2CC(F)(F)[C@@H]3CN([C@H]4CC[C@@H](C(=O)O)CC4)C(=O)[C@@H]32)NC(c2nccs2)=N[C@H]1c1cccc(F)c1C` (single isomer, unassigned) [Compound 185A] were 5.4 nM and 48300 nM.
On to `CCOC(=O)C1=C(CN2C[C@H](F)[C@H]3[C@@H]2CON3CCC(C)(C)C(=O)O)NC(c2nccs2)=N[C@H]1c1cccc(F)c1C` (single isomer, unassigned) [Compound 177], for which the EC50 in series [1] (setting [3]) is 15 nM. The compound also showed a CC50 at 6 days in series [2] of 24000 nM.
For `CCOC(=O)C1=C(CN2CC(F)(F)[C@H]3[C@@H]2CCN3[C@@H](C)CC(C)(C)C(=O)O)NC(c2nccs2)=N[C@H]1c1cccc(F)c1C` (single isomer, unassigned) [Compound 105B] the same measures were 108 nM and 94300 nM.
In the case of `CCOC(=O)C1=C(CN2CC(F)(F)[C@@H]3CN(C(=O)[C@H]4C[C@@H](C(=O)O)C4)C[C@@H]32)NC(c2nccs2)=N[C@H]1c1cccc(F)c1C` (single isomer, unassigned) [Compound 56B], the EC50 in series [1] (setting [3]) is 79.2 nM. In series [2], this compound showed a half-maximal cytotoxic concentration (CC50) at 6 days above 100000 nM.
As to `CCOC(=O)C1=C(CN2CC[C@]3(F)C(=O)N(CCC(C)(C)C(=O)O)C[C@H]23)NC(c2nccs2)=N[C@H]1c1cccc(F)c1C` (single isomer, unassigned) [Compound 210B], the EC50 in series [1] (setting [3]) worked out at 97.7 nM. This compound registered a CC50 at 6 days in series [2] of 48700 nM.
Taken in the same sequence, the figures for `CCOC(=O)C1=C(CN2CC(F)(F)[C@H]3CN(C[C@@H](C)C(=O)O)C[C@H]32)NC(c2nccs2)=N[C@H]1c1cccc(F)c1C` (single isomer, unassigned) [Compound 15E] were 22.5 nM and 41700 nM.

The record behind these values is patent US20230083012A1, “DIHYDROPYRIMIDINE DERIVATIVES AND USES THEREOF IN THE TREATMENT OF HBV INFECTION OR OF HBV-INDUCED DISEASES” (priority 2019, published 2023).
